“And” between values parts separate entries of the source, which are not always exact repeats. Equal entries are not always repeated.
Key:
[1] = molecular target: KCNQ3 with mutation A315T (KCNQ3*) (Homo sapiens, UniProt O43525, A315T); assay: Two-electrode voltage clamp of KCNQ3* in Xenopus oocytes; type: cell-based; details: Q3*, individual oocytes
Description: KCNQ2 and KCNQ3 form a channel complex that carries M currents in neurons. Similar to KCNQ1, these KCNQ subunits require PIP2 for voltage-dependent activation. KCNQ2 alone can express functional channels in Xenopus oocytes, while KCNQ3 alone cannot. However, a single mutation, A315T, allows KCNQ3 to functionally express in Xenopus oocytes. We examined the effects of CP1 on KCNQ2, KCNQ3 with mutation A315T (denoted as KCNQ3*), KCNQ2+KCNQ3, and KCNQ2+KCNQ3* expressed in Xenopus oocytes (Fig. 5a). Similar to the effects on KCNQ1 and IKs channels, CP1 changed the amplitude of currents (Fig. 5b), shifted the G–V relation to more negative voltages (Fig. 5c), and slowed the deactivation kinetics (Fig. 5d) for all of these KCNQ channels. These CP1 effects were relatively small on KCNQ2 as compared with those on other KCNQ channels, and the effects on KCNQ2/KCNQ3* and KCNQ2/KCNQ3 complexes were closer to those on KCNQ2 alone.
Fig. 5 Subtype selectivity of CP1 on KCNQ channels. a Current traces of KCNQ channels as indicated in the absence and the presence of 10 µM CP1. […]
The whole-oocyte ionic currents were recorded with a GeneClamp 500B amplifier (Axon Instruments, CA) or iTEV90 amplifier (HEKA, Germany) and then sampled at 1 kHz and low-pass-filtered at 2 kHz. […] The Kir1.1 current was recorded with a high K^+ bath solution containing (in mM) 96 KCl, 4 NaCl, 1 CaCl2, 2 MgCl2, and 10 HEPES, pH 7.3–7.4. The HCN4 current was recorded in ND66 solution containing (in mM) 66 NaCl, 32 KCl, 1.8 CaCl2, 1 MgCl2, and 5 HEPES, pH 7.6. All the other potassium channels were recorded in ND96 solution. The currents of CaV1.2 channel were recorded in 40 mM Ba^2+ bath solution containing (in mM) 40 Ba(OH)2, 50 TEA-OH, 2 KOH, and 5 HEPES, adjusted to pH 7.4 with methanesulfonic acid. […] The HCN4 currents were recorded by a test pulse between −30 and −140 mV in 10-mV step from a holding potential of −30 mV. […]

NaV1.5 = NaV1.5 (Homo sapiens, UniProt Q14524); assay: Cut-open oocyte recording of NaV1.5; type: cell-based; details: 10 µM CP1
NaV1.5, sequence (Q14524 whole entry): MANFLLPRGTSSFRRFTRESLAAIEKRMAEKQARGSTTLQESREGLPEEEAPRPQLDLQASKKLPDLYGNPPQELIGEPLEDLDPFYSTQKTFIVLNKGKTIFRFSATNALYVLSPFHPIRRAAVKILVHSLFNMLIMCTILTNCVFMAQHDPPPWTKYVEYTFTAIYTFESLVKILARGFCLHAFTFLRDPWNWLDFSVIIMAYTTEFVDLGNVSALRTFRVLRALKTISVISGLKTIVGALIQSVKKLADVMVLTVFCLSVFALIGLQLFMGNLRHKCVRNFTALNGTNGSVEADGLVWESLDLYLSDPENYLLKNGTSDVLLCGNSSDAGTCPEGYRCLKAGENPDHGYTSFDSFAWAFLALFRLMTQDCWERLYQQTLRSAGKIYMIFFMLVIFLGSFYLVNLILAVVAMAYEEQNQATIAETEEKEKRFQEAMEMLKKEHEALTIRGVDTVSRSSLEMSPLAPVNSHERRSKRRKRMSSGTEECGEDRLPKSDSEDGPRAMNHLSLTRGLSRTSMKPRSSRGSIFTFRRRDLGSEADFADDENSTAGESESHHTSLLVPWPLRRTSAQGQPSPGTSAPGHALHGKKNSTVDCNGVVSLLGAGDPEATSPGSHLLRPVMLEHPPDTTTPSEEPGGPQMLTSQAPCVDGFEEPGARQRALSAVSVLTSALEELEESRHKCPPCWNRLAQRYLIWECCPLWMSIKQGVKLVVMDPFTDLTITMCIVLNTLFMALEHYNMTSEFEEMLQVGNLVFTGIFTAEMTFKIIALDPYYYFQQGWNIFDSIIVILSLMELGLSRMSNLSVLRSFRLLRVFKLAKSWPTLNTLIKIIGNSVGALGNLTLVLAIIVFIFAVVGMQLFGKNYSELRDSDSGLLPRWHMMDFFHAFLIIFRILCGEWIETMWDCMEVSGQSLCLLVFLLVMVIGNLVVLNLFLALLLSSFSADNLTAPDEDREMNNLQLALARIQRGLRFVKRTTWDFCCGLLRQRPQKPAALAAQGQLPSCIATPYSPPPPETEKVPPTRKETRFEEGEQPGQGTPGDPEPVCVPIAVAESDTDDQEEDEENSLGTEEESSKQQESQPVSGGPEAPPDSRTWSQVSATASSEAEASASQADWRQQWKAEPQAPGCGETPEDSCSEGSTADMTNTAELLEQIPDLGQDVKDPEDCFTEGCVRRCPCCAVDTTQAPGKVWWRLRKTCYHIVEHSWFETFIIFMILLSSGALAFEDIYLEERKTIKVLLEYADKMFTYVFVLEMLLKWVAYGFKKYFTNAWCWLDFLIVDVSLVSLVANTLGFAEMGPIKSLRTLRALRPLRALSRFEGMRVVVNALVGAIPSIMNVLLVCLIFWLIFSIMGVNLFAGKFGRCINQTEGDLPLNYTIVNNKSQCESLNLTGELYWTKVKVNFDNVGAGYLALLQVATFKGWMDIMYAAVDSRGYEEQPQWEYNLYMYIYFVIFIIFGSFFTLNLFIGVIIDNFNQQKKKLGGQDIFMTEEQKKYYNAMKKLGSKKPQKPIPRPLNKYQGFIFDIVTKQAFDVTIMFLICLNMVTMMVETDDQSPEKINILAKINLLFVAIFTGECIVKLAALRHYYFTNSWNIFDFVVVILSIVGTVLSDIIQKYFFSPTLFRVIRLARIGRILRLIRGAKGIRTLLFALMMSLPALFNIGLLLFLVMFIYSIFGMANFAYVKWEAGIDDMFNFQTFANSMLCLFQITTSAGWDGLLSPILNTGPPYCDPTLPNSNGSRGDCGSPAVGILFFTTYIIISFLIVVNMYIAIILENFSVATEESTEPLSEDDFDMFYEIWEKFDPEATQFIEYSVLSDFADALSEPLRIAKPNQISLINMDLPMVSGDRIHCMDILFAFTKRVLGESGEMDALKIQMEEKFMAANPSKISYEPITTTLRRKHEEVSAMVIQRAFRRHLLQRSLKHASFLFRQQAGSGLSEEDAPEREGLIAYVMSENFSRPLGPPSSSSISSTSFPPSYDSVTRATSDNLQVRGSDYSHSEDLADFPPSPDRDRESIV
NaV1.5, sequence (Q07699 19-218 partner): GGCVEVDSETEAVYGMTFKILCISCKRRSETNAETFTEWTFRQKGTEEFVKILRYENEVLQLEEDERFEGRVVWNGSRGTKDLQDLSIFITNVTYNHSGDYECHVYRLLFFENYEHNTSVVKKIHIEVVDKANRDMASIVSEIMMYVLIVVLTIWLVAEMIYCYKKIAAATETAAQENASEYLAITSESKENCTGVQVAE

O=S(=O)([O-])Oc1c(-c2sc3c(ccc4cccc(Cl)c43)c2OS(=O)(=O)[O-])[nH]c2ccc(Br)cc12.[Na+].[Na+] [CP1, DISODIUM 5-BROMO-2-[9-CHLORO-3-(SULFONATOOXY) NAPHTHO [1,2-B] THIEN-2-YL]-1H-INDOL-3-YL SULFATE] was tested, and the “outward current (Icp1/Ictrl)” value ([1]; 10 µM CP1, at −10 mV) was 1.2737 and 1.6954 and 1.3889 and 1.1185 and 2.1991, the “∆V1/2” value ([1]; 10 µM CP1) was 53.8685 mV and 55.0436 mV and 52.8957 mV and 57.617 mV and 27.8181 mV and the “τ deact at -120 mV” value ([1]; 10 µM CP1 treated) was 0.795 s and 1.6371 s and 1.4451 s and 1.5742 s and 1.825 s and 1.6646 s. For the same compound, the “G/Gmax Mean (Fig. 6d)” value (NaV1.5; voltage -140 mV) was 0.0026 and the “G/Gmax Mean (Fig. 6d)” value (NaV1.5; voltage -160 mV) was 0.0055.
